One molecule from PMC12735921, “Evaluation of Antiproliferative Activity and Molecular Modeling Studies of Some Novel Benzimidazolone-Bridged Hybrid Compounds” (Pharmaceuticals, 2025) can be followed below.

Each structure is given as a SMILES string. Values joined by “and” are separate entries in the source; they are usually repeats but may differ in a detail not shown here. Equal entries are not always repeated. Marks after values point to notes of the source that are not given here.

Common to all, as to assay type: cell-based, human
Assay [1] deals with A549 cells. Kind of assay: Total oxidative status (TOS), A549. As to conditions: A549, IC50 concentration of compound, 48 h; H2O2 250 µM positive control; mean ± SD, n = 3. As for the experimental part: TOS were evaluated using a commercially available kit (Rel Assay Diagnostics®, Gaziantep, Turkey) according to the manufacturer’s instructions. […] The TOS assay quantifies oxidizing agents based on their ability to convert an iron (II) ion chelator complex to iron (III) ions. The results were calibrated against hydrogen peroxide (H2O2, 250 µM) as a positive control for 48 h and expressed as µmol H2O2 equivalents per liter. The analysis was performed in three independent biological replicates (n = 3).

Assay [2] has as its system HeLa cells. Kind of assay: Intracellular GSH/GSSG ratio, HeLa. As to conditions: IC50 concentration of compound, 48 h, H2O2 positive control, mean ± SD, n = 3. As for the experimental part: (§1) Intracellular reduced (GSH) and oxidized (GSSG) glutathione levels were measured using the GSH/GSSG Ratio Detection Assay Kit (Cayman Chemical, Ann Arbor, MI, USA, Cat. No: 703002) according to the manufacturer’s protocol. […] After treatment, cells were washed with cold PBS and lysed with MES buffer provided in the kit.
(§2) To prevent oxidation of GSH to GSSG during processing, samples were deproteinized using the supplied metaphosphoric acid solution and neutralized accordingly. Total glutathione and GSSG levels were measured separately by adding the appropriate buffers and reagents to the wells of a 96-well plate, followed by the addition of DTNB recycling reagent and glutathione reductase. Absorbance was read at 405 nm using a microplate reader (BMG Labtech, Germany). The amount of GSH was calculated by subtracting 2 × GSSG from the total glutathione, and the GSH/GSSG ratio was used to assess intracellular redox status.

In assay [3] the test system is MCF-7 cells. Kind of assay: MTT cell viability assay, MCF-7. Put shortly:
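Cells exposed to compounds at 0.5–200 µM for 48 h in DMEM with 10% FBS at 37 °C, 5% CO2; formazan dissolved in DMSO and read at 570 nm. Cytotoxicity relative to untreated control; IC50 from four-parameter logistic fit, mean of three independent measurements, triplicate samples.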
Background: Tetrazolium assays rely on reduction of a dye to a coloured formazan, in cell work by metabolically active cells.

Assay [4] has as its system HeLa cells. Description: Cell cycle analysis (PI staining, flow cytometry), HeLa. To be noted: IC50 concentration, 48 h, mean ± SEM, n = 3. As for the experimental part:
Cell cycle distribution was assessed by propidium iodide (PI) staining and flow cytometry. HeLa, MCF-7, and A549 cells were seeded in 6-well plates at a density of 1 × 10^5 cells per well and allowed to attach overnight. […] Following exposure, both adherent and floating cells were collected, washed twice with cold phosphate-buffered saline (PBS, pH 7.4), and fixed overnight in 70% cold ethanol at 4 °C. After fixation, the cells were centrifuged and resuspended in 500 µL of PI/RNase staining solution containing 50 µg/mL PI and 100 µg/mL RNase A (Sigma-Aldrich®, St. Louis, MO, USA), followed by incubation in the dark for 30 min at 37 °C. The stained samples were analyzed using a Muse™ Cell Analyzer (Merck, Millipore, Germany) equipped with a 488 nm excitation laser and a 617 nm emission filter. A minimum of 10,000 events per sample were acquired after exclusion of debris and doublets via FSC-A vs. FSC-H gating. The DNA content histograms were generated automatically, and cell populations were expressed as percentages of G0/G1, S, and G2/M phases using the Muse™ Cell Cycle Analysis Software 1.5.0.0. All assays were conducted in triplicate biological repeats (n = 3), and results were reported as mean ± SEM.

Assay [5] relates to MCF-7 cells. Kind of assay: Intracellular GSH/GSSG ratio, MCF-7. As to conditions: MCF-7, IC50 concentration of compound, 48 h; H2O2 positive control; mean ± SD, n = 3. As for the experimental part:
as §1, §2

The test system of assay [6] is A549 cells. Description: Intracellular GSH/GSSG ratio, A549. To be noted: A549, IC50 concentration of compound, 48 h; H2O2 positive control; mean ± SD, n = 3. As to the method:
as §1, §2

In assay [7] the test system is MCF-7 cells. Kind of assay: LDH leakage assay, MCF-7. As to conditions: MCF-7, IC50 concentration of compound, 48 h; H2O2 positive control; mean ± SD, n = 3. As for the experimental part:
One hundred microliters of culture medium was transferred to a new 96-well plate. One hundred microliters of LDH reaction solution was added to each well, and absorbance was measured at 490 nm using an ELISA plate reader (BMG Labtech, Ortenberg, Germany) after 30 min.
On the technique in general: Release of lactate dehydrogenase indicates damage to the cell membrane.

The term IC50 denotes the concentration at which inhibition is half-maximal. As to `O=C(O)Cn1c(=O)n(CC(=O)O)c2cc(Cl)c(Cl)cc21` [Compound 6, 2,2′-(5,6-Dichloro-2-oxo-1H-benzo[d]imidazole-1,3(2H)-diyl)diacetic Acid], the TOS in assay [1] is 7.3 ± 0.5 ^a,b µmol H2O2 eq/L. Further, the GSH/GSSG is 10.6 ± 1.1 in assay [2]; 12.1 ± 1.2 nmol/mg Protein and 12.1 ± 1.2 ^a,b nmol/mg Protein in assay [5]; 11.2 ± 1.0 nmol/mg Protein and 11.2 ± 1.0 ^a,b nmol/mg Protein in assay [6]. For the same molecule, half-maximal inhibition in assay [3] (Homo sapiens, MCF7, MTT, 48 h, mean ± SD, n = 3) (IC50) was put at 28.3 ± 1.63 µM. In addition, the “MCF-7 Selectivity Index (SI)” value in assay [3] (SI = IC50 (HEK 293)/IC50 (MCF-7)) is reported as 2.21. The “cells in G0/G1 phase” value in assay [4] came to 42.3 ± 2.3%. In assay [4], the “cells in G2/M phase” value was 32.9 ± 1.6%. In assay [4], the “cells in S phase” value is on record as 24.8 ± 1.5%. In assay [7], the LDH was 22.7 ± 1.8 µU/mL and 22.7 ± 1.8 ^a,b µU/mL.
